Earlier results in patent publication US8946148B2 (Ambrx, Inc., priority 2007, dated 2015).

System: patients with NIDDM and impaired glucose tolerance

Cc1c(C)c2c(c(C)c1O)CCC(C)(COc1ccc(CC3SC(=O)NC3=O)cc1)O2 (stereo not shown) [Troglitazone]
effect on insulin resistance: reverse insulin resistance
